Reference: patent US9862708B2, “Pyrazolone compounds and uses thereof” (Tempest Therapeutics, Inc., priority 2014, dated 2018)
pIC50: −log10 of the molar value.

Target: T1, human PPARα (Homo sapiens, UniProt Q07869)
T1 construct: host or cells: proprietary non-human mammalian cells
T1 sequence (Q07869 1-468): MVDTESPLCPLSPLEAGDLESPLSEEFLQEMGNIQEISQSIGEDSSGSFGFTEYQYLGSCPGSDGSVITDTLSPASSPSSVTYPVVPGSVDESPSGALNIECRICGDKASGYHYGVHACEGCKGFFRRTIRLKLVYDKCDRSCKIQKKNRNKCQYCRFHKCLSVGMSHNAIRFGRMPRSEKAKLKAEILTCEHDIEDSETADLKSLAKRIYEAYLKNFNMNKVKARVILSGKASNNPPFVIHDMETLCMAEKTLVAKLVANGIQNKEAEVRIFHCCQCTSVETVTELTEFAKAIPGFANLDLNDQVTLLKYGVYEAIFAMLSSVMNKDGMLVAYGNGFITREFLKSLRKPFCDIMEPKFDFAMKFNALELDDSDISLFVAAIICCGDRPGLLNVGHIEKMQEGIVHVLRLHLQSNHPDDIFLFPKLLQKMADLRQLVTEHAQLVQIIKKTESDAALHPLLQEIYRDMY
Assay: Human PPARα Reporter Assay (luciferase, Indigo Biosciences)
Type: cell-based
Settings: antagonism; luciferase reporter cells, overnight incubation; read-out: PPARα IC50
Method: Human PPARα Reporter Assay
The screening of test compounds for agonist or antagonist activities against human PPARα receptors was performed using a commercial kit, Human PPARα Reporter Assay System (Indigo Biosciences, Cat. #IB00111).
This nuclear receptor assay system utilizes proprietary non-human mammalian cells engineered to provide constitutive, high-level expression of Human PPARα. Because these cells incorporate a PPARα-responsive luciferase reporter gene, quantifying expressed luciferase activity provides a sensitive surrogate measure of PPARα activity in the treated cells. The primary application of this reporter assay system is in the screening of test samples to quantify any functional activity, either agonist or antagonist, that they may exert against human PPARα.
Briefly, reporter cells are dispensed into wells of the assay plate and then immediately dosed with test compounds. Following an overnight incubation, the treatment media is discarded and Luciferase Detection Reagent (LDR) is added. The intensity of light emission from the ensuing luciferase reaction provides a sensitive measure that is directly proportional to the relative level of PPARα activation in the reporter cells.

pIC50 | Compound
4.82 | CCCC1(CCC)C(=O)N(c2ccc(C(F)(F)F)cc2)N=C1CCCc1ccc(OC(C)(C)C(=O)O)cc1 [Example 41, 2-methyl-2-(4-(3-(5-oxo-4,4-dipropyl-1-(4-(trifluoromethyl)phenyl)-4,5-dihydro-1H-pyrazol-3-yl)propyl)phenoxy)propanoic acid]
7.70 | CC(C)(Oc1ccc(CCCC2=NN(c3cccc(C(C)(C)C)c3)C(=O)C23CCCC3)cc1)C(=O)O [Example 40, 2-(4-(3-(3-(3-(tert-butyl)phenyl)-4-oxo-2,3-diazaspiro[4,4]non-1-en-1-yl)propyl)phenoxy)-2-methylpropanoic acid]
4.47 | CCCC1(CCC)C(=O)N(c2cccc(C(F)(F)F)c2)N=C1CCCc1ccc(OC(C)(C)C(=O)O)cc1 [Example 42, 2-methyl-2-(4-(3-(5-oxo-4,4-dipropyl-1-(3-(trifluoromethyl)phenyl)-4,5-dihydro-1H-pyrazol-3-yl)propyl)phenoxy)propanoic acid]
8.85 | CC(C)(Oc1ccc(CCCC2=NN(c3ccc(C(F)(F)F)cc3)C(=O)C23CCCC3)cc1)C(=O)O [Example 24, 2-methyl-2-(4-(3-(4-oxo-3-(4-(trifluoromethyl)phenyl)-2,3-diazaspiro[4,4]non-1-en-1-yl)propyl)phenoxy)propanoic acid]
8.05 | CC1(C)C(=O)N(c2cccc(C(F)(F)F)c2)N=C1CCCc1ccc(OC(C)(C(=O)O)c2ccccc2)cc1 (single isomer, unassigned) [54-enantiomer#2, 2-(4-(3-(4,4-dimethyl-5-oxo-1-(3-(trifluoromethyl)phenyl)-4,5-dihydro-1H-pyrazol-3-yl)propyl)phenoxy)-2-phenylpropanoic acid]
6.55 | CC(C)(Oc1ccc(CCCC2=NN(Cc3ccc(C(C)(C)C)cc3)C(=O)C2(C)C)cc1)C(=O)NCc1ccncc1 [Example 5, 2-(4-(3-(1-(4-(tert-butyl)benzyl)-4,4-dimethyl-5-oxo-4,5-dihydro-1H-pyrazol-3-yl)propyl)phenoxy)-2-methyl-N-(pyridin-4-ylmethyl)propanamide]
6.62 | CC(C)(Oc1ccc(CCCC2=NN(Cc3ccc(C(C)(C)C)cc3)C(=O)C2(C)C)cc1)C(=O)NCc1ccccn1 [Example 4, 2-(4-(3-(1-(4-(tert-butyl)benzyl)-4,4-dimethyl-5-oxo-4,5-dihydro-1H-pyrazol-3-yl)propyl)phenoxy)-2-methyl-N-(pyridin-2-ylmethyl)propanamide]
6.15 | CC(C)(Oc1ccc(CCCC2=NN(c3ccc(OC(F)(F)F)cc3)C(=O)C23CCCC3)cc1)C(=O)NCC(F)(F)F [Example 30, 2-methyl-2-(4-(3-(4-oxo-3-(4-(trifluoromethoxy)phenyl)-2,3-diazaspiro[4,4]non-1-en-1-yl)propyl)phenoxy)-N-(2,2,2-trifluoroethyl)propanamide]
8.33 | CC1(C)C(=O)N(c2ccc(C(F)(F)F)cc2)N=C1CCCc1ccc(OC(C(=O)O)c2ccccc2)cc1 (stereo not drawn) [Example 48, 2-(4-(3-(4,4-dimethyl-5-oxo-1-(4-(trifluoromethyl)phenyl)-4,5-dihydro-1H-pyrazol-3-yl)propyl)phenoxy)-2-phenylacetic acid]
5.89 | CC(C)(CNS(=O)(=O)c1ccccc1)Oc1ccc(CCCC2=NN(c3ccc(C(F)(F)F)cc3)C(=O)C23CCCC3)cc1 [Example 46, N-(2-methyl-2-(4-(3-(4-oxo-3-(4-(trifluoromethyl)phenyl)-2,3-diazaspiro[4,4]non-1-en-1-yl)propyl)phenoxy)propyl)benzenesulfonamide]
7.89 | CC(C)(Oc1ccc(CCCC2=NN(Cc3ccc(C(C)(C)C)cc3)C(=O)C23CCCC3)cc1)C(=O)O [Example 23, 2-(4-(3-(3-(4-(tert-butyl)benzyl)-4-oxo-2,3-diazaspiro[4,4]non-1-en-1-yl)propyl)phenoxy)-2-methylpropanoic acid]
8.39 | CC1(C)C(=O)N(c2ccc(C(F)(F)F)cc2)N=C1CCCc1ccc(OC2(C(=O)O)CCCC2)cc1 [Example 52, 1-(4-(3-(4,4-dimethyl-5-oxo-1-(4-(trifluoromethyl)phenyl)-4,5-dihydro-1H-pyrazol-3-yl)propyl)phenoxy)cyclopentanecarboxylic acid]
6.39 | CC(C)(Oc1ccc(CCCC2=NN(c3ccccc3)C(=O)C2(C)C)cc1)C(=O)O [Example 10, 2-(4-(3-(4,4-dimethyl-5-oxo-1-phenyl-4,5-dihydro-1H-pyrazol-3-yl)propyl)phenoxy)-2-methylpropanoic acid]
8.00 | COc1ccc(-c2ccc(CCCC3=NN(Cc4ccc(C(C)(C)C)cc4)C(=O)C3(C)C)cc2)nc1NS(=O)(=O)c1ccccc1 [Example 59, N-(6-(4-(3-(1-(4-(tert-butyl)benzyl)-4,4-dimethyl-5-oxo-4,5-dihydro-1H-pyrazol-3-yl)propyl)phenyl)-3-methoxypyridin-2-yl)benzenesulfonamide]
6.85 | CC(C)(Oc1ccc(CCCC2=NN(Cc3ccc(C4CCCCC4)cc3)C(=O)C2(C)C)cc1)C(=O)O [Example 17, 2-(4-(3-(1-(4-cyclohexylbenzyl)-4,4-dimethyl-5-oxo-4,5-dihydro-1H-pyrazol-3-yl)propyl)phenoxy)-2-methylpropanoic acid]
6.05 | CC(C)(Oc1ccc(CCCC2=NN(Cc3cccc(C(F)(F)F)c3)C(=O)C2(C)C)cc1)C(=O)O [Example 7, 2-(4-(3-(4,4-dimethyl-5-oxo-1-(3-(trifluoromethyl)benzyl)-4,5-dihydro-1H-pyrazol-3-yl)propyl)phenoxy)-2-methylpropanoic acid]
8.68 | CC1(C)C(=O)N(c2ccc(C(F)(F)F)cc2)N=C1CCCc1ccc(OC(C)(C(=O)O)c2ccccc2)cc1 (single isomer, unassigned) [53-enantiomer#2, 2-(4-(3-(4,4-dimethyl-5-oxo-1-(4-(trifluoromethyl)phenyl)-4,5-dihydro-1H-pyrazol-3-yl)propyl)phenoxy)-2-phenylpropanoic acid]
7.60 | CC(C)(Oc1ccc(CCCC2=NN(c3cccc(-c4ccccc4)c3)C(=O)C23CCCC3)cc1)C(=O)O [Example 38, 2-(4-(3-(3-([1,1′-biphenyl]-3-yl)-4-oxo-2,3-diazaspiro[4,4]non-1-en-1-yl)propyl)phenoxy)-2-methylpropanoic acid]
6.38 | CC(C)(Oc1ccc(CCCC2=NN(Cc3ccc(C(C)(C)C)cc3)C(=O)C2(C)C)cc1)C(=O)NCC1CCCCC1 [Example 6, 2-(4-(3-(1-(4-(tert-butyl)benzyl)-4,4-dimethyl-5-oxo-4,5-dihydro-1H-pyrazol-3-yl)propyl)phenoxy)-N-(cyclohexylmethyl)-2-methylpropanamide]
6.00 | CC(C)(Oc1ccc(CCCC2=NN(CCc3ccccc3)C(=O)C2(C)C)cc1)C(=O)O [Example 9, 2-(4-(3-(4,4-dimethyl-5-oxo-1-phenethyl-4,5-dihydro-H-pyrazol-3-yl)propyl)phenoxy)-2-methylpropanoic acid]
6.59 | CC(C)(Oc1ccc(CCCC2=NN(Cc3ccc(-c4ccccc4)cc3)C(=O)C2(C)C)cc1)C(=O)O [Example 14, 2-(4-(3-(1-([1,1′-biphenyl]-4-ylmethyl)-4,4-dimethyl-5-oxo-4,5-dihydro-1H-pyrazol-3-yl)propyl)phenoxy)-2-methylpropanoic acid]
